Measured values reported in paper PMC7827406, “Structure–Activity Relationship (SAR) Study of Spautin-1 to Entail the Discovery of Novel NEK4 Inhibitors” (International Journal of Molecular Sciences, 2021).
Read-outs that look alike come from different tables or passages of the source.

Tests used:
Assay in all cases: biochemical
Set-up in all cases: Eurofins KinaseProfiler full panel at Km ATP, residual kinase activity (%) relative to DMSO
[1] = target: T1, BIKe(h) (Homo sapiens, UniProt Q9NSY1)
T1 construct: gene BMP2K
T1 sequence (Q9NSY1 whole entry): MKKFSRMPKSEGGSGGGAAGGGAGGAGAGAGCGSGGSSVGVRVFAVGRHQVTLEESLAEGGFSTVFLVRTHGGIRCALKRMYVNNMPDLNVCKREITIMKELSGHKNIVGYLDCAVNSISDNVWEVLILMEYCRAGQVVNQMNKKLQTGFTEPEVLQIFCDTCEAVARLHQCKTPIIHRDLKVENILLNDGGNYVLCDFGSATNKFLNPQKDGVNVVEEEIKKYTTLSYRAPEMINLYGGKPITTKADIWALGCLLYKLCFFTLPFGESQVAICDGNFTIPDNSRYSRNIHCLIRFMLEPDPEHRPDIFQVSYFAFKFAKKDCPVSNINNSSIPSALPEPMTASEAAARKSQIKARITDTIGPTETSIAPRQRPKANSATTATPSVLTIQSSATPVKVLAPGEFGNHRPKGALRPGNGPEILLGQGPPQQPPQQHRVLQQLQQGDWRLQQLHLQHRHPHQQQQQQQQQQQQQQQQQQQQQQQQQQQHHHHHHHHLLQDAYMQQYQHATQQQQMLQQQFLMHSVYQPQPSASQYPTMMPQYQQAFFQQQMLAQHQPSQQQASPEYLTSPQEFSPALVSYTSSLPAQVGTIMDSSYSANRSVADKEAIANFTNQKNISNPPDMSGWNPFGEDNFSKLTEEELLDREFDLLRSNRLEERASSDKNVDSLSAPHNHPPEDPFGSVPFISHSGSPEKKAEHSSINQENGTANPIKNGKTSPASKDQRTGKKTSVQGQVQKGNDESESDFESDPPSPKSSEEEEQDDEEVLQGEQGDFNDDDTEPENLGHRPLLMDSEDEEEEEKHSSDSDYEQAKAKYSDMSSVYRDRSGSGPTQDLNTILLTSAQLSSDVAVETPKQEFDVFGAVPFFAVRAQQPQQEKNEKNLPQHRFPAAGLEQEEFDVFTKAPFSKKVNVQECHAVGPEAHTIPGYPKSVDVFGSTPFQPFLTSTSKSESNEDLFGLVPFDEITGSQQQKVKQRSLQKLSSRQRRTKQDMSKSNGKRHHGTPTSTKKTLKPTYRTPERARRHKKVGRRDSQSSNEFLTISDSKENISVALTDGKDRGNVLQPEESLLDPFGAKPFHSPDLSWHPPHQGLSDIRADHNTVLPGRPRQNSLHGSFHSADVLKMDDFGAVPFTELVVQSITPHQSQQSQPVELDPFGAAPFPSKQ
How it was run: (§1)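 Radiometric kinase activity assays were run with ATP at Km and compounds at 10 µM, and remaining activity (%) was reported. A separate competitive binding screen measured DNA-tagged kinase displaced from immobilized active-site ligands by qPCR, giving percent kinase still bound at 10 µM compound in DMSO.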

[2] = target: T2, EphA3(h) (Homo sapiens, UniProt P29320)
T2 sequence (P29320 1-983): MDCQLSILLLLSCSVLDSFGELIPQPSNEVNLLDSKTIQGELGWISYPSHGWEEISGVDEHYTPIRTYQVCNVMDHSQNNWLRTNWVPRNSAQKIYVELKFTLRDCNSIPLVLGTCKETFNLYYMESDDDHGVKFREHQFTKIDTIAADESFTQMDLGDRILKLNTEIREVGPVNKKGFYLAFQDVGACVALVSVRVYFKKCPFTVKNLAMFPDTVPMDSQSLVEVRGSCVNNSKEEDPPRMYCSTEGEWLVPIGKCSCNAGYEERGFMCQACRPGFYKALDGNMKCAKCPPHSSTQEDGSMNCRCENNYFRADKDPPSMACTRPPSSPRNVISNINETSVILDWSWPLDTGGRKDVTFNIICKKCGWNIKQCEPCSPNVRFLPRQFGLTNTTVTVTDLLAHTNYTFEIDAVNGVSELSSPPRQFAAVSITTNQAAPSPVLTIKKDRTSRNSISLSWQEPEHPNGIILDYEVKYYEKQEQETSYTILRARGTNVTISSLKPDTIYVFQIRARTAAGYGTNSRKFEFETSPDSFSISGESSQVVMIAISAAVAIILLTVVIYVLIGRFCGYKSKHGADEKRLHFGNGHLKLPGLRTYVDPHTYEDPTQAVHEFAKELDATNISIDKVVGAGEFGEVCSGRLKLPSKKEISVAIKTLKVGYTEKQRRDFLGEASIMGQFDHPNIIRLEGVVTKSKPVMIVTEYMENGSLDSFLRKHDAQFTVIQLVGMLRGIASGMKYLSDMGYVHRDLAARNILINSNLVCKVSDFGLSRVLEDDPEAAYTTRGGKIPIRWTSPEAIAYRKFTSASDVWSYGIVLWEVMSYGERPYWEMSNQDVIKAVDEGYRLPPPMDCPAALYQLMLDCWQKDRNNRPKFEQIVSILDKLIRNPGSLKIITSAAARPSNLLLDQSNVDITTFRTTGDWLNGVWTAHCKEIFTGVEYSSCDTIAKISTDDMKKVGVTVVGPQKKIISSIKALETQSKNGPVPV
How it was run: as §1

[3] = target: T3, PI3 Kinase (p110d/p85a)(h) (Homo sapiens, UniProt O00329)
T3 construct: gene PIK3CD
T3 sequence (O00329 whole entry): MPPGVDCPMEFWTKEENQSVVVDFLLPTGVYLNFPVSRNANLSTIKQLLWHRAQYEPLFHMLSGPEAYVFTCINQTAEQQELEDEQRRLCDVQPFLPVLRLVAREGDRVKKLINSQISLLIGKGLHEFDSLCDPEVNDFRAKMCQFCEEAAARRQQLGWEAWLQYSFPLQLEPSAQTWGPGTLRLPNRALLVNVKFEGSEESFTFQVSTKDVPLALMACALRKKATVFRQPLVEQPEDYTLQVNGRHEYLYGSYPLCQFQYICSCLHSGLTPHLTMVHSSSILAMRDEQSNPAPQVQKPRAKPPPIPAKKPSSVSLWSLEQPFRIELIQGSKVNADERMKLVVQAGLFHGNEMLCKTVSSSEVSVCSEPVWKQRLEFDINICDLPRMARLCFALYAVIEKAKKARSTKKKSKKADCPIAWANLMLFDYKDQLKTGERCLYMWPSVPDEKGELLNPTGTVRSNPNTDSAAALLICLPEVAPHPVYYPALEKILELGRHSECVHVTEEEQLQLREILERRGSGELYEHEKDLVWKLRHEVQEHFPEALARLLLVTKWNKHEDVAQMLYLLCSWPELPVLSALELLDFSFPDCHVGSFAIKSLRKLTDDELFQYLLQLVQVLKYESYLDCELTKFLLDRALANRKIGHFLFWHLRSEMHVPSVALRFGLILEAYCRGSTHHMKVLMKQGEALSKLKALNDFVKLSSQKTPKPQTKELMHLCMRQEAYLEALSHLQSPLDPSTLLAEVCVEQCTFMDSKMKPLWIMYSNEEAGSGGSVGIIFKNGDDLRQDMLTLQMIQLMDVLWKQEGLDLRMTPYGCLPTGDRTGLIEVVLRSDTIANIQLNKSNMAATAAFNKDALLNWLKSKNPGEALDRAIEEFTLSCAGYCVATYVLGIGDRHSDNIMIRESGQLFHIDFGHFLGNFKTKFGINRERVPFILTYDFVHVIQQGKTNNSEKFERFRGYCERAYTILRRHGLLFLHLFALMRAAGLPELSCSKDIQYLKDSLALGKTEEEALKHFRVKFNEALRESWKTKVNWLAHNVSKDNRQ
T3 sequence (P27986 whole entry partner): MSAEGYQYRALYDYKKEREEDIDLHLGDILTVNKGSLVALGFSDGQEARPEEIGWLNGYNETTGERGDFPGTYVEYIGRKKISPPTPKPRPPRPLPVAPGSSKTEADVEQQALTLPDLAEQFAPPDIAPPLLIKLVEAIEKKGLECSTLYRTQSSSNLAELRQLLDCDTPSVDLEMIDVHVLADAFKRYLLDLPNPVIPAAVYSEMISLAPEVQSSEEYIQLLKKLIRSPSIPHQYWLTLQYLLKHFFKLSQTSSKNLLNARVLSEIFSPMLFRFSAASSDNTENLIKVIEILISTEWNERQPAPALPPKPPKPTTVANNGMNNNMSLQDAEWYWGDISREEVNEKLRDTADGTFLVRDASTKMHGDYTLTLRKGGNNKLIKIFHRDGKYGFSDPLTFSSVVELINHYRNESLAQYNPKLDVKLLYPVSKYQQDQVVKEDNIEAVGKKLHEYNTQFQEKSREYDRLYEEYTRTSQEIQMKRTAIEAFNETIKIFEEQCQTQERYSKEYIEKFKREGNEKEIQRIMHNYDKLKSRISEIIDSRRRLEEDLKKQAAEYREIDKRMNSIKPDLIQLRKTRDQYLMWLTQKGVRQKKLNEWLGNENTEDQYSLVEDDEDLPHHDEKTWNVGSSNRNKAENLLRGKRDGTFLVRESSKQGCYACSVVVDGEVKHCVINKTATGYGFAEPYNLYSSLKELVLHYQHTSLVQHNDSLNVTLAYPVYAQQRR
How it was run: as §1

[4] = target: T4, Haspin(h) (Homo sapiens, UniProt Q8TF76)
T4 sequence (Q8TF76 1-798): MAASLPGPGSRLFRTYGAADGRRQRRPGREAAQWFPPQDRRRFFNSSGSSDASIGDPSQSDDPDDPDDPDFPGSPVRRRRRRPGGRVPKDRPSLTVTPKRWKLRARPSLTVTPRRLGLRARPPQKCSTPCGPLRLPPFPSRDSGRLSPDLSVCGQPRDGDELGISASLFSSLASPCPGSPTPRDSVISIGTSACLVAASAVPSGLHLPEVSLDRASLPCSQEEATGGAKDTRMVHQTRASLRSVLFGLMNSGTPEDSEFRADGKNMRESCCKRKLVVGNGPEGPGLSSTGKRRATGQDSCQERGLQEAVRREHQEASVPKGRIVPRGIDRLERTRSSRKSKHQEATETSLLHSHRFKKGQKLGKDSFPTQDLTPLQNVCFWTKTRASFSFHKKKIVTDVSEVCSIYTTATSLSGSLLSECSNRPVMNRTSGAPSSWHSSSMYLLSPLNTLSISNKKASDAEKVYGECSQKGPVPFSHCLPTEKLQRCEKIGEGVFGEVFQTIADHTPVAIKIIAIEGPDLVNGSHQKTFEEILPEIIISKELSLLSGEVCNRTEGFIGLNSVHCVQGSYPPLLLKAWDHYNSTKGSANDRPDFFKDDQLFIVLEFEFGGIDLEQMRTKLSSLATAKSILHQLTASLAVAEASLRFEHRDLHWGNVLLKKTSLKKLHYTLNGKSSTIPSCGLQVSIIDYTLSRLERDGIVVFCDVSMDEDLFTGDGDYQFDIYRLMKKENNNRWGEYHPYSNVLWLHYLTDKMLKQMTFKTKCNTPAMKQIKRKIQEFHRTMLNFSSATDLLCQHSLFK
How it was run: as §1

[5] = target: T5, PKCθ(h) (Homo sapiens, UniProt Q04759)
T5 construct: gene PRKCQ
T5 sequence (Q04759 whole entry): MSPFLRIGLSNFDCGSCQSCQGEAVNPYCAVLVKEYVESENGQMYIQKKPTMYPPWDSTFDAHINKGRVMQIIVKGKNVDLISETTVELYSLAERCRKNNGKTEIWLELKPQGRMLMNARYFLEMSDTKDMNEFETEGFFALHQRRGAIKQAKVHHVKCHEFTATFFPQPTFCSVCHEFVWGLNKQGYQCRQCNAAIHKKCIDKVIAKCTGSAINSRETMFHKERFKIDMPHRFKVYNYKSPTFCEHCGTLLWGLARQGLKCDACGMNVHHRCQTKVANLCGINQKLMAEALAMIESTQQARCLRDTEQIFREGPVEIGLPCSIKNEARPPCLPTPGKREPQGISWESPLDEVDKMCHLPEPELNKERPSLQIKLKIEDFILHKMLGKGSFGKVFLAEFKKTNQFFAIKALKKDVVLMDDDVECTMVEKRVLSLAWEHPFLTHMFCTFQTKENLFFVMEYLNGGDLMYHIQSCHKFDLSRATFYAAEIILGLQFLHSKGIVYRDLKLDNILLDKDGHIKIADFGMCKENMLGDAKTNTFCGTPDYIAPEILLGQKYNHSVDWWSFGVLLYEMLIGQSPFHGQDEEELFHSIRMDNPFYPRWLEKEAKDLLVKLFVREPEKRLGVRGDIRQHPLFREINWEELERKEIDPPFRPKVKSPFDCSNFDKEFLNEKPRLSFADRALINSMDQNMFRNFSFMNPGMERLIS
How it was run: as §1

[6] = target: T6, Fms(Y969C)(h) (Homo sapiens, UniProt P07333, Y969C)
T6 construct: gene CSF1R
How it was run: as §1

[7] = target: T7, ROCK-I(h) (Homo sapiens, UniProt Q13464)
T7 construct: gene ROCK1
T7 sequence (Q13464 whole entry): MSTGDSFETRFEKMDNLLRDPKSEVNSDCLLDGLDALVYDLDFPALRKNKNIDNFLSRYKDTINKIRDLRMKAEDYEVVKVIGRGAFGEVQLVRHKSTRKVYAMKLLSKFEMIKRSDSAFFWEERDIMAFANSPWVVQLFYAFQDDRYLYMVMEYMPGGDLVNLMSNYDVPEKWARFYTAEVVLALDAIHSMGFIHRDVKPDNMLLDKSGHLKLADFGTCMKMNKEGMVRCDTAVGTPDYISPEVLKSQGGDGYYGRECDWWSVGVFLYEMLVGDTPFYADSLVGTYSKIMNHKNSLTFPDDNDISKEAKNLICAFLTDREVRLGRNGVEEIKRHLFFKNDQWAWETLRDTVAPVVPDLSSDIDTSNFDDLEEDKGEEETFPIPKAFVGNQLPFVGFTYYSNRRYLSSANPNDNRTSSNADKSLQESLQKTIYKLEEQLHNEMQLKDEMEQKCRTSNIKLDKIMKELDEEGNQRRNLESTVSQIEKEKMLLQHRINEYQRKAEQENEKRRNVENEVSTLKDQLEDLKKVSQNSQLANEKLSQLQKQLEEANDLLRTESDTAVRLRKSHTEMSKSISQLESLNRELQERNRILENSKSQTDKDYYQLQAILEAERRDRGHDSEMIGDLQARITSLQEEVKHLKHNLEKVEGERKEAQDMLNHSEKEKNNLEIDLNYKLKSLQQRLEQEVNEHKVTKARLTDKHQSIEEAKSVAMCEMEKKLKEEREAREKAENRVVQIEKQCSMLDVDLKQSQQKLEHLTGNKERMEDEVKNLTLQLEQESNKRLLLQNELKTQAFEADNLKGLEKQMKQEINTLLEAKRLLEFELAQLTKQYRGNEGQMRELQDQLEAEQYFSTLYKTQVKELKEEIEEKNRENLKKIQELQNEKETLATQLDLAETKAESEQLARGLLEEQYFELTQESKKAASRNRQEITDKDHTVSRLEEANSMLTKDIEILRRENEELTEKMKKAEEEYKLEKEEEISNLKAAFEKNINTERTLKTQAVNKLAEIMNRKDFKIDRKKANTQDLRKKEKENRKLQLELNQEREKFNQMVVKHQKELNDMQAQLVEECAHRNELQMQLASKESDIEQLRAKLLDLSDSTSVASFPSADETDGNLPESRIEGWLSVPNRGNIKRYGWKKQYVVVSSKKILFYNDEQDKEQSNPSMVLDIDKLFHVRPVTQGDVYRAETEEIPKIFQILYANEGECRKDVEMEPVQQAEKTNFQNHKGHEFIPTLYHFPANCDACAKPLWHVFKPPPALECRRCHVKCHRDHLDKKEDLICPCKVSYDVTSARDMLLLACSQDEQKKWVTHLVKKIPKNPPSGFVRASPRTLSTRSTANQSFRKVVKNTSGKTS
How it was run: as §1

[8] = target: T8, PRK2(h) (Homo sapiens, UniProt Q16513)
T8 construct: gene PKN2
How it was run: as §1

[9] = read-out: Residual activity (%) 5ay
[10] = read-out: Residual activity (%) Spautin-1 5aa
[11] = read-out: Residual activity (%) 5at
[12] = read-out: Residual activity (%) 5as

In the case of `COc1ccc2ncnc(Nc3cccc(F)c3)c2c1` [5ay, N-(3-Fluorophenyl)-6-Methoxy-4-Quinazolinamine], the remaining activity at 10 µM [1, 9] is reported as 67%, the remaining activity at 10 µM [2, 9] is reported as 110% and the remaining activity at 10 µM [3, 9] is reported as 96%. The remaining activity at 10 µM [4, 9] was 36%, the remaining activity at 10 µM [5, 9] was 117% and the remaining activity at 10 µM [6, 9] was 87%. The remaining activity at 10 µM [7, 9] was 96% and the remaining activity at 10 µM [8, 9] was 95%.

With `Fc1ccc(CNc2ncnc3ccc(F)cc23)cc1` [5aa, 6-Fluoro-N-(4-fluorobenzyl)-4-Quinazolinamine] the remaining activity at 10 µM [1, 10] was 95%, the remaining activity at 10 µM [2, 10] was 116% and the remaining activity at 10 µM [3, 10] was 93%. It also gave a remaining activity at 10 µM [4, 10] of 71%, a remaining activity at 10 µM [5, 10] of 80% and a remaining activity at 10 µM [6, 10] of 81%. The remaining activity at 10 µM [7, 10] was 91% and the remaining activity at 10 µM [8, 10] was 108%.

Compound `Fc1ccc2ncnc(NCCc3ccc(Cl)cc3)c2c1` [5at, N-[2-(4-Chlorophenyl)Ethyl]-6-Fluoro-4-Quinazolinamine] has a remaining activity at 10 µM [1, 11] of 88%, a remaining activity at 10 µM [2, 11] of 94% and a remaining activity at 10 µM [3, 11] of 80%. It also gave a remaining activity at 10 µM [4, 11] of 78%, a remaining activity at 10 µM [5, 11] of 90% and a remaining activity at 10 µM [6, 11] of 78%. The remaining activity at 10 µM [7, 11] was 93% and the remaining activity at 10 µM [8, 11] was 96%.

`Fc1ccc(CCNc2ncnc3ccc(F)cc23)cc1` [5as, 6-Fluoro-N-[2-(4-Fluorophenyl)Ethyl]-4-Quinazolinamine] gave a remaining activity at 10 µM [1, 12] of 98%, a remaining activity at 10 µM [2, 12] of 108% and a remaining activity at 10 µM [3, 12] of 84%. The remaining activity at 10 µM [4, 12] was 72%, the remaining activity at 10 µM [5, 12] was 100% and the remaining activity at 10 µM [6, 12] was 80%. For the same compound, the remaining activity at 10 µM [7, 12] was 98% and the remaining activity at 10 µM [8, 12] was 104%.
